Measured values reported in ChEMBL document CHEMBL4507297, “Data for DCP probe PF-04457845” (2021).

How the values were obtained:
[1] = biological target: Tyrosine-protein kinase ABL1 (Homo sapiens) (UniProt P00519); settings: Compound concentration 1000.0 nM
[2] = biological target: Tyrosine-protein kinase Blk (Homo sapiens) (UniProt P51451); settings: Compound concentration 1000.0 nM
[3] = biological target: Serine/threonine-protein kinase BRSK1 (Homo sapiens) (UniProt Q8TDC3); settings: Compound concentration 1000.0 nM
[4] = biological target: Calcium/calmodulin-dependent protein kinase kinase 1 (Homo sapiens) (UniProt Q8N5S9); settings: Compound concentration 1000.0 nM
[5] = biological target: Serine/threonine-protein kinase Chk2 (Homo sapiens) (UniProt O96017); settings: Compound concentration 1000.0 nM
[6] = biological target: Macrophage colony-stimulating factor 1 receptor (Homo sapiens) (UniProt P07333); settings: Compound concentration 1000.0 nM
[7] = biological target: Casein kinase I isoform alpha (Homo sapiens) (UniProt P48729); settings: Compound concentration 1000.0 nM
[8] = biological target: Casein kinase I isoform delta (Homo sapiens) (UniProt P48730); settings: Compound concentration 1000.0 nM
[9] = biological target: Casein kinase I isoform gamma-2 (Homo sapiens) (UniProt P78368); settings: Compound concentration 1000.0 nM
[10] = tested on: Epidermal growth factor receptor (Homo sapiens), P00533 [G719C]; settings: Compound concentration 1000.0 nM
[11] = tested on: Epidermal growth factor receptor (Homo sapiens), P00533 [G719S]; settings: Compound concentration 1000.0 nM
[12] = tested on: Epidermal growth factor receptor (Homo sapiens), P00533 [L858R,T790M]; settings: Compound concentration 1000.0 nM
[13] = biological target: Ephrin type-A receptor 5 (Homo sapiens) (UniProt P54756); settings: Compound concentration 1000.0 nM
[14] = biological target: Ephrin type-A receptor 6 (Homo sapiens) (UniProt Q9UF33); settings: Compound concentration 1000.0 nM
[15] = biological target: Ephrin type-A receptor 7 (Homo sapiens) (UniProt Q15375); settings: Compound concentration 1000.0 nM
Sequence of Ephrin type-A receptor 7 (Homo sapiens) (Q15375 28-998 limits assumed): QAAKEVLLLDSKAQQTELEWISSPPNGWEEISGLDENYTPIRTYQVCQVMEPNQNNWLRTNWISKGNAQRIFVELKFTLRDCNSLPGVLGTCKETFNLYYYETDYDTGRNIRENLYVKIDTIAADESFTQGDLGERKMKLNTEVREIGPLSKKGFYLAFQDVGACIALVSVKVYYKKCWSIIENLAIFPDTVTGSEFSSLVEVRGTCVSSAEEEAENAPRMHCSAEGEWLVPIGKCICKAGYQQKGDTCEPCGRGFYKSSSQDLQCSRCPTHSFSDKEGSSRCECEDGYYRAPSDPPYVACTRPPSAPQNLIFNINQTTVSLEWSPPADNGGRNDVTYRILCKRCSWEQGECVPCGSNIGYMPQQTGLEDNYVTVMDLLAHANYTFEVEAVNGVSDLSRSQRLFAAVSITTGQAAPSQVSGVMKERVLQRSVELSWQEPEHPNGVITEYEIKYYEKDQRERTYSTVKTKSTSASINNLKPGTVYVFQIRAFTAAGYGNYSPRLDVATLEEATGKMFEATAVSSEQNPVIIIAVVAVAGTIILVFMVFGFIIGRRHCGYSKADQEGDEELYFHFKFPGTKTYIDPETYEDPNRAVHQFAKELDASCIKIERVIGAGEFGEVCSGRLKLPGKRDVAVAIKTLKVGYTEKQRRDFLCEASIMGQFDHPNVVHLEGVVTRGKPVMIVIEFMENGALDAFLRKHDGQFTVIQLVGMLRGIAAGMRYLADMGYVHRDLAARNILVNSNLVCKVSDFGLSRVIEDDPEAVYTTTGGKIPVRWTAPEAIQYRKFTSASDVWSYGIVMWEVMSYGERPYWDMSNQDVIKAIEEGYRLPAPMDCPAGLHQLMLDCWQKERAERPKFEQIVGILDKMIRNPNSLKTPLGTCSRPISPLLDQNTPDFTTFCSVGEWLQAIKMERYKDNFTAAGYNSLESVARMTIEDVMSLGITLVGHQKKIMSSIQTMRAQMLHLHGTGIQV

[16] = biological target: Ephrin type-B receptor 4 (Homo sapiens) (UniProt P54760); settings: Compound concentration 1000.0 nM
[17] = biological target: Tyrosine-protein kinase Fes/Fps (Homo sapiens) (UniProt P07332); settings: Compound concentration 1000.0 nM
[18] = biological target: Tyrosine-protein kinase Fyn (Homo sapiens) (UniProt P06241); settings: Compound concentration 1000.0 nM
[19] = biological target: Homeodomain-interacting protein kinase 2 (Homo sapiens) (UniProt Q9H2X6); settings: Compound concentration 1000.0 nM
[20] = biological target: Mitogen-activated protein kinase 8 (Homo sapiens) (UniProt P45983); settings: Compound concentration 1000.0 nM
[21] = tested on: Mast/stem cell growth factor receptor Kit (Homo sapiens), P10721 [L576P]; settings: Compound concentration 1000.0 nM
[22] = biological target: Tyrosine-protein kinase Lck (Homo sapiens) (UniProt P06239); settings: Compound concentration 1000.0 nM
[23] = biological target: Leucine-rich repeat serine/threonine-protein kinase 2 (Homo sapiens) (UniProt Q5S007); settings: Compound concentration 1000.0 nM
[24] = biological target: Mitogen-activated protein kinase kinase kinase 15 (Homo sapiens) (UniProt Q6ZN16); settings: Compound concentration 1000.0 nM
[25] = biological target: Serine/threonine-protein kinase Nek4 (Homo sapiens) (UniProt P51957); settings: Compound concentration 1000.0 nM
Sequence of Serine/threonine-protein kinase Nek4 (Homo sapiens) (P51957 whole entry, looked up, canonical isoform): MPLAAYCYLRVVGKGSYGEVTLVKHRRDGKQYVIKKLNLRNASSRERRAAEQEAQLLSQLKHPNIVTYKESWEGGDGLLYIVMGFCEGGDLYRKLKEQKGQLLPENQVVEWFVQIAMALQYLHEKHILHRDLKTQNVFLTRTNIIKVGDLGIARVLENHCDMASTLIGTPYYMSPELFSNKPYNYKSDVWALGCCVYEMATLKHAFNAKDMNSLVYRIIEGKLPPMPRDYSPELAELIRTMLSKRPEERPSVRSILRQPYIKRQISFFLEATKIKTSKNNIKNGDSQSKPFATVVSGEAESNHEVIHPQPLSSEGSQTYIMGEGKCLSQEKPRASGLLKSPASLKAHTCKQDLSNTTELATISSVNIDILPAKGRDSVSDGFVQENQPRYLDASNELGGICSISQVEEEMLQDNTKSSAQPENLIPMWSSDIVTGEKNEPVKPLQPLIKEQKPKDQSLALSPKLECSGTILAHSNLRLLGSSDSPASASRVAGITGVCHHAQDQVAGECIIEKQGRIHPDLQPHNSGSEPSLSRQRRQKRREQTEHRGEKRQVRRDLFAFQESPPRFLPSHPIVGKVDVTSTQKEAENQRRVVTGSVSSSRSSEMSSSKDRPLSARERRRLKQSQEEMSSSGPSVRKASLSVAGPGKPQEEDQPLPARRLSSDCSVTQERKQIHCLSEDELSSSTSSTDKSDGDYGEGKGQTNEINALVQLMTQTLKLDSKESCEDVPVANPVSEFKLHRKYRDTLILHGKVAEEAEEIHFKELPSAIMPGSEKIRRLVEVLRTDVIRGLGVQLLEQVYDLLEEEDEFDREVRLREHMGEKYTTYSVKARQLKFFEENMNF

[26] = tested on: Phosphatidylinositol 4,5-bisphosphate 3-kinase catalytic subunit alpha isoform (Homo sapiens), P42336 [I800L]; settings: Compound concentration 1000.0 nM
[27] = biological target: Phosphatidylinositol 4,5-bisphosphate 3-kinase catalytic subunit gamma isoform (Homo sapiens) (UniProt P48736); settings: Compound concentration 1000.0 nM
Sequence of Phosphatidylinositol 4,5-bisphosphate 3-kinase catalytic subunit gamma isoform (Homo sapiens) (P48736 whole entry, looked up, canonical isoform): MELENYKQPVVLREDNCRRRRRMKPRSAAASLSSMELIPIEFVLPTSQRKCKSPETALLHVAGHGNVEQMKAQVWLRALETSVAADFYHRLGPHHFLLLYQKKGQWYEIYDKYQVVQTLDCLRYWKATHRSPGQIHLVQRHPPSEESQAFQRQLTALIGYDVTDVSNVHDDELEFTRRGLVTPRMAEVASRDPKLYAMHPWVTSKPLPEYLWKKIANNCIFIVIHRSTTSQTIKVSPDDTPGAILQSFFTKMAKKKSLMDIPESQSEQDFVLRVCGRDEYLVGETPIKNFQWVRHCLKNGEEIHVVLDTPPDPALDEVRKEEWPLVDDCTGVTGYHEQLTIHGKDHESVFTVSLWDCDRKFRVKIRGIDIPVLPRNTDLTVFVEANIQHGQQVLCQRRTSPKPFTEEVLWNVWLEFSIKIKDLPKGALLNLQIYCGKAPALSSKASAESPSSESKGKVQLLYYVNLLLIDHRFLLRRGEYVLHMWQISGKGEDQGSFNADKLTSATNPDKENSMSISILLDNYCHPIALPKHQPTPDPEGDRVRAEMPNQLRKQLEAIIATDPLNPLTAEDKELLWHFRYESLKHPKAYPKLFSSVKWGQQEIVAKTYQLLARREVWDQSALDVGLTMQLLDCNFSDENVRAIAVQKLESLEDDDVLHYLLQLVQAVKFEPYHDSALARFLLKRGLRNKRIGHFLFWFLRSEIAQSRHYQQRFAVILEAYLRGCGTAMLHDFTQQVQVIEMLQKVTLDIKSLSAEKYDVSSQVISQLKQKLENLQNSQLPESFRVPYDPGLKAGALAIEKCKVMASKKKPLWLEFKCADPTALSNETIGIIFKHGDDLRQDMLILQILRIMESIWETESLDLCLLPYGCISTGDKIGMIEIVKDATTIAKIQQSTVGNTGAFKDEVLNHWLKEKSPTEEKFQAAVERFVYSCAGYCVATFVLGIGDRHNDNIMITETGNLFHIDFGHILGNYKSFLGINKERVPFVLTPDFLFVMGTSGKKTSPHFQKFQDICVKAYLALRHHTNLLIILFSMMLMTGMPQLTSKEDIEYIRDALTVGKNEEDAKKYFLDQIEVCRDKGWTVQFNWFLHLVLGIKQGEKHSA

[28] = biological target: Serine/threonine-protein kinase PLK4 (Homo sapiens) (UniProt O00444); settings: Compound concentration 1000.0 nM
[29] = biological target: cGMP-dependent protein kinase 1 (Homo sapiens) (UniProt Q13976); settings: Compound concentration 1000.0 nM
[30] = biological target: Receptor-interacting serine/threonine-protein kinase 1 (Homo sapiens) (UniProt Q13546); settings: Compound concentration 1000.0 nM
[31] = biological target: Ribosomal protein S6 kinase alpha-4 (Homo sapiens) (UniProt O75676); settings: Compound concentration 1000.0 nM
[32] = biological target: SRSF protein kinase 1 (Homo sapiens) (UniProt Q96SB4); settings: Compound concentration 1000.0 nM
[33] = biological target: Serine/threonine-protein kinase TAO1 (Homo sapiens) (UniProt Q7L7X3); settings: Compound concentration 1000.0 nM
Sequence of Serine/threonine-protein kinase TAO1 (Homo sapiens) (Q7L7X3 whole entry): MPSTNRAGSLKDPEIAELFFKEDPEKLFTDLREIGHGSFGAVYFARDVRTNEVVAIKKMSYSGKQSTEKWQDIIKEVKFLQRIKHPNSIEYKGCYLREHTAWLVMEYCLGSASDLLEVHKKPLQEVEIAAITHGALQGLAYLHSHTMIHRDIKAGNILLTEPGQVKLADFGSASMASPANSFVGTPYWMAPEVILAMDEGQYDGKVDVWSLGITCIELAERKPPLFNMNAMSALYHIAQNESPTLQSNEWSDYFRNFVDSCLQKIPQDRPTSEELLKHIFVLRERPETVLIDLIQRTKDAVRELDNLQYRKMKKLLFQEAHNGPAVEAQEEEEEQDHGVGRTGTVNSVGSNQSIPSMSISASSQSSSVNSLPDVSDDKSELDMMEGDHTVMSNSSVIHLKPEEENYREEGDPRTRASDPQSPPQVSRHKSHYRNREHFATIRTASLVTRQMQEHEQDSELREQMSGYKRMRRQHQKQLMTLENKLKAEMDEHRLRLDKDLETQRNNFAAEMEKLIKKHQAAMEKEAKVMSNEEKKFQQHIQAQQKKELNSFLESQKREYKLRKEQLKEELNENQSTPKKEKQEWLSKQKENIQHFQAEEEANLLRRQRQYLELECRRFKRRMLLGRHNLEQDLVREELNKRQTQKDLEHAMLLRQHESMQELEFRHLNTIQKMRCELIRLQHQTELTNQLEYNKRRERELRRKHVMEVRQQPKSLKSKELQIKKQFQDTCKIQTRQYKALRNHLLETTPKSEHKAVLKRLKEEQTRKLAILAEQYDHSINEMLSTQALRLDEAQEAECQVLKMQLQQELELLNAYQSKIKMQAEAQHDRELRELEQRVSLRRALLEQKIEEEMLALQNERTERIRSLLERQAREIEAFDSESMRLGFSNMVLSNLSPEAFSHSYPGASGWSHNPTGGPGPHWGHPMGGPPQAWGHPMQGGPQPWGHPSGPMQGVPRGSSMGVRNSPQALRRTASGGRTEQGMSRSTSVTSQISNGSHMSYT

[34] = biological target: Testis-specific serine/threonine-protein kinase 3 (Homo sapiens) (UniProt Q96PN8); settings: Compound concentration 1000.0 nM
[35] = biological target: 5-hydroxytryptamine receptor 6 (Homo sapiens) (UniProt P50406); settings: Compound concentration 10.0 uM
[36] = biological target: Histamine H3 receptor (Homo sapiens) (UniProt Q9Y5N1); settings: Compound concentration 10.0 uM
Sequence of Histamine H3 receptor (Homo sapiens) (Q9Y5N1 whole entry): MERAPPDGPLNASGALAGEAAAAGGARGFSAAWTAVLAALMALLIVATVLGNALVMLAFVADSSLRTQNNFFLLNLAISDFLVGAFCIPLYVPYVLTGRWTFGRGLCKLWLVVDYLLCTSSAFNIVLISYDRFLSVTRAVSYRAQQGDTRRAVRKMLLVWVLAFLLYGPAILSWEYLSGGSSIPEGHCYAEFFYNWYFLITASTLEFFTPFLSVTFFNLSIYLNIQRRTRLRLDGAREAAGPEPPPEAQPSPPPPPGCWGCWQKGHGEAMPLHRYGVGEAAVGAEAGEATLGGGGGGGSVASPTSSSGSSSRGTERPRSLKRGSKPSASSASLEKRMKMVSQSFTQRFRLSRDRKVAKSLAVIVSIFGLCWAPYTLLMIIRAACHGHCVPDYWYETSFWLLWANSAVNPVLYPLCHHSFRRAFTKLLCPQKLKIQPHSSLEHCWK

[37] = biological target: T1, Muscarinic acetylcholine receptor M2 (Homo sapiens) (UniProt P08172); settings: Compound concentration 10.0 uM
T1 sequence (whole entry): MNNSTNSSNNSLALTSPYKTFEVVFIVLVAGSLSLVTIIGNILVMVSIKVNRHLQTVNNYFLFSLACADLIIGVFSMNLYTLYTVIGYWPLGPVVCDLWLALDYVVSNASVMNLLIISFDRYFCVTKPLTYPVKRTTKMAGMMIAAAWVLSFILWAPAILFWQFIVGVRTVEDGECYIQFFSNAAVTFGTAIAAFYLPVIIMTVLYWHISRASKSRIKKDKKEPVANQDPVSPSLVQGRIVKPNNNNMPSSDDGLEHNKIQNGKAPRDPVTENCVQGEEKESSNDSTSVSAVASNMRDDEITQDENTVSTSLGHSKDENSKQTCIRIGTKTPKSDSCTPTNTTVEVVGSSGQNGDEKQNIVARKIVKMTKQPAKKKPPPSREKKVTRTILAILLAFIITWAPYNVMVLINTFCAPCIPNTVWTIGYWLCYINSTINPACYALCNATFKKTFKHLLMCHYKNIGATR

Rattus norvegicus = organism: Rattus norvegicus; settings: Compound concentration 10.0 uM
[38] = biological target: Sigma non-opioid intracellular receptor 1 (Homo sapiens, UniProt Q99720); settings: Compound concentration 10.0 uM

Sequence of Tyrosine-protein kinase Blk (Homo sapiens) (P51451 2-505 limits assumed): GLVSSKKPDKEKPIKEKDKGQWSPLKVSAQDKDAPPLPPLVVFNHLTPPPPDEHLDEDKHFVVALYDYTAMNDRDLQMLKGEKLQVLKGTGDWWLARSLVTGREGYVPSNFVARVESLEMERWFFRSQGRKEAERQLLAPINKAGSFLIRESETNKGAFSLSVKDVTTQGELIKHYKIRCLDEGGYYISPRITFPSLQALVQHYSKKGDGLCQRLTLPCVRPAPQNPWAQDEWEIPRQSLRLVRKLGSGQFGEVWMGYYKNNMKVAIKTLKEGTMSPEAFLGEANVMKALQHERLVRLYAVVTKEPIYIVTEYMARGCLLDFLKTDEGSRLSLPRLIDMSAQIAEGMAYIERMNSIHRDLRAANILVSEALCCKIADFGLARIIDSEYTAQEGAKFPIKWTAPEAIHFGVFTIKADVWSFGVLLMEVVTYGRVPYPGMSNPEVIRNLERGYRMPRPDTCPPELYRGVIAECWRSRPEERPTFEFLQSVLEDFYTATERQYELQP

Compound	residual activity [1]	residual activity [2]	residual activity [3]	residual activity [4]	residual activity [5]	residual activity [6]	residual activity [7]	residual activity [8]	residual activity [9]	residual activity [10]	residual activity [11]	residual activity [12]	residual activity [13]	residual activity [14]	residual activity [15]	residual activity [16]	residual activity [17]	residual activity [18]	residual activity [19]	residual activity [20]	further results
O=C(Nc1cccnn1)N1CCC(=Cc2cccc(Oc3ccc(C(F)(F)F)cn3)c2)CC1	68%	100%	73%	92%	94%	100%	100%	100%	92%	100%	99%	99%	98%	78%	95%	69%	76%	100%	100%	100%	residual activity [21]: 0%; residual activity [22]: 80%; residual activity [23]: 99%; residual activity [24]: 100%; residual activity [25]: 98%; residual activity [26]: 100%; residual activity [27]: 100%; residual activity [28]: 100%; residual activity [29]: 100%; residual activity [30]: 97%; residual activity [31]: 98%; residual activity [32]: 97%; residual activity [33]: 100%; residual activity [34]: 100%; inhibition [35]: 40.6%; inhibition [36]: 8.73%; inhibition [37]: 20.8%; inhibition (Rattus norvegicus): 59.6%; inhibition [38]: 88.5%
O=C(Nc1cccnn1)N1CC(C/C=C/c2cncc(Oc3ccc(C(F)(F)F)cn3)n2)C1	87%	65%	100%	100%	100%	87%	88%	100%	100%	100%	100%	82%	85%	100%	100%	100%	91%	100%	89%	75%	residual activity [21]: 88%; residual activity [22]: 100%; residual activity [23]: 90%; residual activity [24]: 81%; residual activity [25]: 95%; residual activity [26]: 91%; residual activity [27]: 100%; residual activity [28]: 98%; residual activity [29]: 100%; residual activity [30]: 100%; residual activity [31]: 100%; residual activity [32]: 82%; residual activity [33]: 91%; residual activity [34]: 98%; inhibition [35]: 7.76%; inhibition [36]: 17.3%; inhibition [37]: 20.7%; inhibition (Rattus norvegicus): 25.6%; inhibition [38]: 32.2%
